From patent publication EP0049968A1, “Pharmaceutical compositions” (priority 1980, dated 1982)
Where two headings read alike, the source gives them in different places.

Key:
[1] = test system: highly resistant E.coli strains (producing a plasmid mediated β-lactamase); assay: MIC of compound (i) alone and in combination with compound (iii), E. coli strains; assay type: cell-based; conditions: for MIC: Escherichia coli, compound (i) alone
[2] = test system: highly resistant strains of Pseudomonas aeruginosa (producing both a plasmid-and chromosomally-mediated β-lactamase); assay: MIC of compound (i) alone and in combination with compound (iii), Pseudomonas aeruginosa strains; assay type: cell-based; conditions: for MIC: Pseudomonas aeruginosa

CC1(C)S[C@@H]2[C@H](NC(=O)[C@H](NC(=O)Nc3cnc(Nc4ccc(S(N)(=O)=O)cc4)nc3O)c3ccc(O)cc3)C(=O)N2[C@H]1C(=O)O [compound (i)]
MIC ([1]; read-out: MIC µg/ml compound (i) alone, Geometric mean (± 95% confidence limits), geometric mean of 11 E. coli strains): > 160 µg/mL
MIC ([1]; read-out: MIC µg/ml compound (i) alone, strain E96): > 160 µg/mL
MIC ([1]; read-out: MIC µg/ml compound (i) alone, strain E110): > 160 µg/mL
MIC ([1]; read-out: MIC µg/ml compound (i) alone, strain E121): > 161 µg/mL
MIC ([1]; read-out: MIC µg/ml compound (i) alone, strain E124): > 160 µg/mL
MIC ([1]; read-out: MIC µg/ml compound (i) alone, strain JT4): > 160 µg/mL
MIC ([1]; read-out: MIC µg/ml compound (i) alone, strain JT9): > 160 µg/mL
MIC ([1]; read-out: MIC µg/ml compound (i) alone, strain JT39): 160 µg/mL
MIC ([1]; read-out: MIC µg/ml compound (i) alone, strain JT68): > 160 µg/mL
MIC ([1]; read-out: MIC µg/ml compound (i) alone, strain P9): > 160 µg/mL
MIC ([1]; read-out: MIC µg/ml compound (i) alone, strain P19): > 160 µg/mL
MIC ([1]; read-out: MIC µg/ml compound (i) alone, strain SA15): > 160 µg/mL
MIC µg/ml compound (i) compound (iii) (µg/ml) 1, Geometric mean (± 95% confidence limits) ([1]; geometric mean of 11 E. coli strains, with compound (iii) 1 µg/ml): 0.80 (0.16-4.1) µg/ml
MIC µg/ml compound (i) compound (iii) (µg/ml) 2, Geometric mean (± 95% confidence limits) ([1]; geometric mean of 11 E. coli strains, with compound (iii) 2 µg/ml): 0.59 (0.15-2.2) µg/ml
MIC µg/ml compound (i) compound (iii) (µg/ml) 5, Geometric mean (± 95% confidence limits) ([1]; geometric mean of 11 E. coli strains, with compound (iii) 5 µg/ml): 0.19 (0.07-0.53) µg/ml
MIC µg/ml compound (i) compound (iii) (µg/ml) 10, Geometric mean (± 95% confidence limits) ([1]; geometric mean of 11 E. coli strains, with compound (iii) 10 µg/ml): 0.08 (0.02-0.30) µg/ml
MIC µg/ml compound (i) compound (iii) (µg/ml) 1 ([1]; strain E96, with compound (iii) 1 µg/ml): 0.62 µg/mL
MIC µg/ml compound (i) compound (iii) (µg/ml) 2 ([1]; strain E96, with compound (iii) 2 µg/ml): 0.62 µg/mL
MIC µg/ml compound (i) compound (iii) (µg/ml) 5 ([1]; strain E96, with compound (iii) 5 µg/ml): 0.31 µg/mL
MIC µg/ml compound (i) compound (iii) (µg/ml) 10 ([1]; strain E96, with compound (iii) 10 µg/ml): 0.31 µg/mL
MIC µg/ml compound (i) compound (iii) (µg/ml) 1 ([1]; strain E110, with compound (iii) 1 µg/ml): 0.16 µg/mL
MIC µg/ml compound (i) compound (iii) (µg/ml) 2 ([1]; strain E110, with compound (iii) 2 µg/ml): 0.16 µg/mL
MIC µg/ml compound (i) compound (iii) (µg/ml) 5 ([1]; strain E110, with compound (iii) 5 µg/ml): 0.08 µg/mL
MIC µg/ml compound (i) compound (iii) (µg/ml) 10 ([1]; strain E110, with compound (iii) 10 µg/ml): 0.02 µg/mL
MIC µg/ml compound (i) compound (iii) (µg/ml) 1 ([1]; strain E121, with compound (iii) 1 µg/ml): 0.62 µg/mL
MIC µg/ml compound (i) compound (iii) (µg/ml) 2 ([1]; strain E121, with compound (iii) 2 µg/ml): 0.31 µg/mL
MIC µg/ml compound (i) compound (iii) (µg/ml) 5 ([1]; strain E121, with compound (iii) 5 µg/ml): 0.16 µg/mL
MIC µg/ml compound (i) compound (iii) (µg/ml) 10 ([1]; strain E121, with compound (iii) 10 µg/ml): 0.08 µg/mL
MIC µg/ml compound (i) compound (iii) (µg/ml) 1 ([1]; strain E124, with compound (iii) 1 µg/ml): 1.25 µg/mL
MIC µg/ml compound (i) compound (iii) (µg/ml) 2 ([1]; strain E124, with compound (iii) 2 µg/ml): 0.62 µg/mL
MIC µg/ml compound (i) compound (iii) (µg/ml) 5 ([1]; strain E124, with compound (iii) 5 µg/ml): 0.31 µg/mL
MIC µg/ml compound (i) compound (iii) (µg/ml) 10 ([1]; strain E124, with compound (iii) 10 µg/ml): 0.16 µg/mL
MIC µg/ml compound (i) compound (iii) (µg/ml) 1 ([1]; strain JT4, with compound (iii) 1 µg/ml): 40 µg/mL
MIC µg/ml compound (i) compound (iii) (µg/ml) 2 ([1]; strain JT4, with compound (iii) 2 µg/ml): 20 µg/mL
MIC µg/ml compound (i) compound (iii) (µg/ml) 5 ([1]; strain JT4, with compound (iii) 5 µg/ml): 2.5 µg/mL
MIC µg/ml compound (i) compound (iii) (µg/ml) 10 ([1]; strain JT4, with compound (iii) 10 µg/ml): 1.25 µg/mL
MIC µg/ml compound (i) compound (iii) (µg/ml) 1 ([1]; strain JT9, with compound (iii) 1 µg/ml): 1.25 µg/mL
MIC µg/ml compound (i) compound (iii) (µg/ml) 2 ([1]; strain JT9, with compound (iii) 2 µg/ml): 0.62 µg/mL
MIC µg/ml compound (i) compound (iii) (µg/ml) 5 ([1]; strain JT9, with compound (iii) 5 µg/ml): 0.08 µg/mL
MIC µg/ml compound (i) compound (iii) (µg/ml) 10 ([1]; strain JT9, with compound (iii) 10 µg/ml): 0.08 µg/mL
MIC µg/ml compound (i) compound (iii) (µg/ml) 1 ([1]; strain JT39, with compound (iii) 1 µg/ml): 0.16 µg/mL
MIC µg/ml compound (i) compound (iii) (µg/ml) 2 ([1]; strain JT39, with compound (iii) 2 µg/ml): 0.16 µg/mL
MIC µg/ml compound (i) compound (iii) (µg/ml) 5 ([1]; strain JT39, with compound (iii) 5 µg/ml): 0.08 µg/mL
MIC µg/ml compound (i) compound (iii) (µg/ml) 10 ([1]; strain JT39, with compound (iii) 10 µg/ml): 0.02 µg/mL
MIC µg/ml compound (i) compound (iii) (µg/ml) 1 ([1]; strain JT68, with compound (iii) 1 µg/ml): 0.16 µg/mL
MIC µg/ml compound (i) compound (iii) (µg/ml) 2 ([1]; strain JT68, with compound (iii) 2 µg/ml): 0.31 µg/mL
MIC µg/ml compound (i) compound (iii) (µg/ml) 5 ([1]; strain JT68, with compound (iii) 5 µg/ml): 0.16 µg/mL
MIC µg/ml compound (i) compound (iii) (µg/ml) 10 ([1]; strain JT68, with compound (iii) 10 µg/ml): 0.08 µg/mL
MIC µg/ml compound (i) compound (iii) (µg/ml) 1 ([1]; strain P9, with compound (iii) 1 µg/ml): 1.25 µg/mL
MIC µg/ml compound (i) compound (iii) (µg/ml) 2 ([1]; strain P9, with compound (iii) 2 µg/ml): 0.62 µg/mL
MIC µg/ml compound (i) compound (iii) (µg/ml) 5 ([1]; strain P9, with compound (iii) 5 µg/ml): 0.16 µg/mL
MIC µg/ml compound (i) compound (iii) (µg/ml) 10 ([1]; strain P9, with compound (iii) 10 µg/ml): 0.08 µg/mL
MIC µg/ml compound (i) compound (iii) (µg/ml) 1 ([1]; strain P19, with compound (iii) 1 µg/ml): 0.31 µg/mL
MIC µg/ml compound (i) compound (iii) (µg/ml) 2 ([1]; strain P19, with compound (iii) 2 µg/ml): 0.31 µg/mL
MIC µg/ml compound (i) compound (iii) (µg/ml) 5 ([1]; strain P19, with compound (iii) 5 µg/ml): 0.08 µg/mL
MIC µg/ml compound (i) compound (iii) (µg/ml) 10 ([1]; strain P19, with compound (iii) 10 µg/ml): 0.02 µg/mL
MIC µg/ml compound (i) compound (iii) (µg/ml) 1 ([1]; strain SA15, with compound (iii) 1 µg/ml): 2.5 µg/mL
MIC µg/ml compound (i) compound (iii) (µg/ml) 2 ([1]; strain SA15, with compound (iii) 2 µg/ml): 1.25 µg/mL
MIC µg/ml compound (i) compound (iii) (µg/ml) 5 ([1]; strain SA15, with compound (iii) 5 µg/ml): 0.31 µg/mL
MIC µg/ml compound (i) compound (iii) (µg/ml) 10 ([1]; strain SA15, with compound (iii) 10 µg/ml): 0.08 µg/mL
MIC ([2]; read-out: MIC µg/ml compound (i) alone): > 160 µg/mL
MIC ([2]; read-out: MIC µg/ml compound (i) alone, Geometric mean): > 160 µg/mL
MIC µg/ml compound (i) compound (iii) (µg/ml) 1, Geometric mean ([2]; geometric mean of 6 Pseudomonas aeruginosa strains, with compound (iii) 1 µg/ml, 95% confidence limits (13.7-58.5)): 28.3 µg/mL
MIC µg/ml compound (i) compound (iii) (µg/ml) 2, Geometric mean ([2]; geometric mean of 6 Pseudomonas aeruginosa strains, with compound (iii) 2 µg/ml, 95% confidence limits (4.7-21.4)): 10 µg/mL
MIC µg/ml compound (i) compound (iii) (µg/ml) 5, Geometric mean ([2]; geometric mean of 6 Pseudomonas aeruginosa strains, with compound (iii) 5 µg/ml, 95% confidence limits (3.1-12.9)): 6.1 µg/mL
MIC µg/ml compound (i) compound (iii) (µg/ml) 10, Geometric mean ([2]; geometric mean of 6 Pseudomonas aeruginosa strains, with compound (iii) 10 µg/ml, 95% confidence limits (2.7-14.6)): 6.3 µg/mL
MIC µg/ml compound (i) alone ([2]; strain 1822): >160 µg/mL
MIC µg/ml compound (i) compound (iii) (µg/ml) 1 ([2]; strain 1822, with compound (iii) 1 µg/ml): 40 µg/mL
MIC µg/ml compound (i) compound (iii) (µg/ml) 2 ([2]; strain 1822, with compound (iii) 2 µg/ml): 5 µg/mL
MIC µg/ml compound (i) compound (iii) (µg/ml) 5 ([2]; strain 1822, with compound (iii) 5 µg/ml): 2.5 µg/mL
MIC µg/ml compound (i) compound (iii) (µg/ml) 10 ([2]; strain 1822, with compound (iii) 10 µg/ml): 2.5 µg/mL
MIC µg/ml compound (i) compound (iii) (µg/ml) 1 ([2]; strain Dalgleish, with compound (iii) 1 µg/ml): 20 µg/mL
MIC µg/ml compound (i) compound (iii) (µg/ml) 2 ([2]; strain Dalgleish, with compound (iii) 2 µg/ml): 10 µg/mL
MIC µg/ml compound (i) compound (iii) (µg/ml) 5 ([2]; strain Dalgleish, with compound (iii) 5 µg/ml): 5 µg/mL
MIC µg/ml compound (i) compound (iii) (µg/ml) 10 ([2]; strain Dalgleish, with compound (iii) 10 µg/ml): 10 µg/mL
MIC µg/ml compound (i) alone ([2]; strain FR6): >160 µg/mL
MIC µg/ml compound (i) compound (iii) (µg/ml) 1 ([2]; strain FR6, with compound (iii) 1 µg/ml): 80 µg/mL
MIC µg/ml compound (i) compound (iii) (µg/ml) 2 ([2]; strain FR6, with compound (iii) 2 µg/ml): 40 µg/mL
MIC µg/ml compound (i) compound (iii) (µg/ml) 5 ([2]; strain FR6, with compound (iii) 5 µg/ml): 20 µg/mL
MIC µg/ml compound (i) compound (iii) (µg/ml) 10 ([2]; strain FR6, with compound (iii) 10 µg/ml): 10 µg/mL
MIC µg/ml compound (i) alone ([2]; strain FR13): >160 µg/mL
MIC µg/ml compound (i) compound (iii) (µg/ml) 1 ([2]; strain FR13, with compound (iii) 1 µg/ml): 40 µg/mL
